Common to all, as to test: DSF 100 kinase selectivity screen;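 further: compound tested at 20 µM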
What all share (type): binding

Assay [1] addresses T1, ~100 representative kinases (Homo sapiens, UniProt P54756).
T1 construct: Recombinant protein kinase domains with a concentration of 2 μM
The conditions noted are these: Protein EPHA5; average of three replicates. Summed up: (§1)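 Each kinase domain, at 2 μM, is mixed with 20 μM test compound and SYPRO Orange in Hepes (20 mM, pH 7.5) with 500 mM NaCl. Temperature is then raised at 3°C/min and fluorescence-monitored unfolding yields the melting temperature change, ΔTm in degrees Celsius.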

In assay [2] the target is T2, ~100 representative kinases (Homo sapiens, UniProt Q9UKI8).
T2 construct: Recombinant protein kinase domains with a concentration of 2 μM
T2 sequence (Q9UKI8 1-766): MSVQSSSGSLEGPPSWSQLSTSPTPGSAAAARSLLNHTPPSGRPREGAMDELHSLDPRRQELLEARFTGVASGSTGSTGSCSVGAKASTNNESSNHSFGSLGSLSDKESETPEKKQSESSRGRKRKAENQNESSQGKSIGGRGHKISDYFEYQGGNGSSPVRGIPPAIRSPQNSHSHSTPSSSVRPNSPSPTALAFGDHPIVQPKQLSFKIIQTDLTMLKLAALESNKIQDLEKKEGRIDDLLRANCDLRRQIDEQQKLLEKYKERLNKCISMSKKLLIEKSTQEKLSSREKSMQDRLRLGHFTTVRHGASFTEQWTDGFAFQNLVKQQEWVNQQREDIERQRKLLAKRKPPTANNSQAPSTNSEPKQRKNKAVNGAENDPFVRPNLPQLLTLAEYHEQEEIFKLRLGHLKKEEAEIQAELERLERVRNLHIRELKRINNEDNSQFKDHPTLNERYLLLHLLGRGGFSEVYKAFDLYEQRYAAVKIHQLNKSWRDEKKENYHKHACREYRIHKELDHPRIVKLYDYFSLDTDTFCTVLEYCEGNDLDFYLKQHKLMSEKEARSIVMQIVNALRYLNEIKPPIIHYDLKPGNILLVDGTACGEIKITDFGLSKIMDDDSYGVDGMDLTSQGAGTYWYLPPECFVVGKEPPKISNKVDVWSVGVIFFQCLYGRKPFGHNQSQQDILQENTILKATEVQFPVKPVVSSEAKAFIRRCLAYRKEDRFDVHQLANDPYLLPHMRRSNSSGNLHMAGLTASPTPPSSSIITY
The note with it: Protein TLK1; DSF; average of three replicates. The method in brief:
as §1

For assay [3], the target named is T3, ~100 representative kinases (Homo sapiens, UniProt Q8TF76).
T3 construct: Recombinant protein kinase domains with a concentration of 2 μM
T3 sequence (Q8TF76 1-798): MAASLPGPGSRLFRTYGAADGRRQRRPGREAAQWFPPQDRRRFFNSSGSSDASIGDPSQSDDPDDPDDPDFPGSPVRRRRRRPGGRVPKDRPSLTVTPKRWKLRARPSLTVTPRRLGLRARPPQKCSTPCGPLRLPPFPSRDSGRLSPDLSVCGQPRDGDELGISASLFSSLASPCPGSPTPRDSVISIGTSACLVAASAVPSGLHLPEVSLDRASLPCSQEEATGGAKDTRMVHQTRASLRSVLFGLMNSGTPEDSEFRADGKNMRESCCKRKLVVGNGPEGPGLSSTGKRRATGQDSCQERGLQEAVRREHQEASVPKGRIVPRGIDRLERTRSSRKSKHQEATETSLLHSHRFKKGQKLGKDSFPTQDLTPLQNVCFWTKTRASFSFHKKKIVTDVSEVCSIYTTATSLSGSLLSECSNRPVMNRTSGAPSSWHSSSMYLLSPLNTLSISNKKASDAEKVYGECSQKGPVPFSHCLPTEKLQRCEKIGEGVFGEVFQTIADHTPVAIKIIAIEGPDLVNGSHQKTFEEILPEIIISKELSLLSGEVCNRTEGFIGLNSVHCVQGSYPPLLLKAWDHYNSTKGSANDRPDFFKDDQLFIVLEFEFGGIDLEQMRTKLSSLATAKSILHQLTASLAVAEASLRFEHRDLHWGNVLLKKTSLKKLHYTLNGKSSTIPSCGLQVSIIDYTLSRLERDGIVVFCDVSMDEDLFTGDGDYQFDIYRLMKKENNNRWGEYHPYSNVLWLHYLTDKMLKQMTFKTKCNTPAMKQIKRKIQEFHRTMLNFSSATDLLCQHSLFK
The note with it: protein GSG2; average of three replicates. Summed up: as §1

The target of assay [4] is T4, ~100 representative kinases (Homo sapiens, UniProt O94768).
T4 construct: Recombinant protein kinase domains with a concentration of 2 μM
T4 sequence (O94768 1-372): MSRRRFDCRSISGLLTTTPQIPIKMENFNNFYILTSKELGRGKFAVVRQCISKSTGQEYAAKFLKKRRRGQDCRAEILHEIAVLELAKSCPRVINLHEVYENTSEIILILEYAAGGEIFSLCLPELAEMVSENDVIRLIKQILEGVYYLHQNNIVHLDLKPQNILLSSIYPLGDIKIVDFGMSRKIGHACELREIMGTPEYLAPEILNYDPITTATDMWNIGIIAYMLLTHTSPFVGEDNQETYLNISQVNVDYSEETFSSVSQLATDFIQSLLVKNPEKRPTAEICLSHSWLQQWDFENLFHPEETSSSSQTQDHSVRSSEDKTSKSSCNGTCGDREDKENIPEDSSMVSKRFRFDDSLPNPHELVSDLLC
The note with it: Protein STK17B; DSF; average of three replicates. Summed up:
as §1

Assay [5] addresses T5, ~100 representative kinases (Homo sapiens, UniProt P16083).
T5 construct: Recombinant protein kinase domains with a concentration of 2 μM
T5 sequence (P16083 1-231): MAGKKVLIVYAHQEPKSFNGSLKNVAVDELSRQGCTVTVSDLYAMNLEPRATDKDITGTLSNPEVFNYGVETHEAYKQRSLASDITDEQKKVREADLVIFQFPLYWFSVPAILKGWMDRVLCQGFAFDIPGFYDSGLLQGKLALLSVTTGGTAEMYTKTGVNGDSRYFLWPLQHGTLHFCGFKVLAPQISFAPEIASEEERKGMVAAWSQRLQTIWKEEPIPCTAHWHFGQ
The note with it: protein NQO2; average of three replicates. Summed up:
as §1

In assay [6] the target is T6, ~100 representative kinases (Homo sapiens, UniProt O96013).
T6 construct: Recombinant protein kinase domains with a concentration of 2 μM
T6 sequence (O96013 whole entry, the tested form may be a part): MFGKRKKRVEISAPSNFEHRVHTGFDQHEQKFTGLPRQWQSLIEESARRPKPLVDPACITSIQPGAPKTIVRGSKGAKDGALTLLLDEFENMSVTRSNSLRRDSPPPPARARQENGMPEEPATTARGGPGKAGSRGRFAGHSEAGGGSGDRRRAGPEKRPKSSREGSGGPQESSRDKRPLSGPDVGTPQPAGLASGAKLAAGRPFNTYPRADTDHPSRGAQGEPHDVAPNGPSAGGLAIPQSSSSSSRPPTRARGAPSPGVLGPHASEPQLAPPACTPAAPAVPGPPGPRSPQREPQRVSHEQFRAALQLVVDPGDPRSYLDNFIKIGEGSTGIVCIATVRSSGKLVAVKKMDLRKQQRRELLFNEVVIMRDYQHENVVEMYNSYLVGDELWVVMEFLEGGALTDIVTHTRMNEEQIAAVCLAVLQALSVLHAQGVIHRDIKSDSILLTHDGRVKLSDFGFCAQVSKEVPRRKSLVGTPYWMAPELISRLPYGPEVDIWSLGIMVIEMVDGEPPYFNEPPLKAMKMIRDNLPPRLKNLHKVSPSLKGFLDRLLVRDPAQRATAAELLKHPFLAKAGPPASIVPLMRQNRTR
The conditions noted are these: protein PAK4; average of three replicates. Summed up:
as §1

Structures are written as SMILES.

T1 sequence (P54756 25-1037): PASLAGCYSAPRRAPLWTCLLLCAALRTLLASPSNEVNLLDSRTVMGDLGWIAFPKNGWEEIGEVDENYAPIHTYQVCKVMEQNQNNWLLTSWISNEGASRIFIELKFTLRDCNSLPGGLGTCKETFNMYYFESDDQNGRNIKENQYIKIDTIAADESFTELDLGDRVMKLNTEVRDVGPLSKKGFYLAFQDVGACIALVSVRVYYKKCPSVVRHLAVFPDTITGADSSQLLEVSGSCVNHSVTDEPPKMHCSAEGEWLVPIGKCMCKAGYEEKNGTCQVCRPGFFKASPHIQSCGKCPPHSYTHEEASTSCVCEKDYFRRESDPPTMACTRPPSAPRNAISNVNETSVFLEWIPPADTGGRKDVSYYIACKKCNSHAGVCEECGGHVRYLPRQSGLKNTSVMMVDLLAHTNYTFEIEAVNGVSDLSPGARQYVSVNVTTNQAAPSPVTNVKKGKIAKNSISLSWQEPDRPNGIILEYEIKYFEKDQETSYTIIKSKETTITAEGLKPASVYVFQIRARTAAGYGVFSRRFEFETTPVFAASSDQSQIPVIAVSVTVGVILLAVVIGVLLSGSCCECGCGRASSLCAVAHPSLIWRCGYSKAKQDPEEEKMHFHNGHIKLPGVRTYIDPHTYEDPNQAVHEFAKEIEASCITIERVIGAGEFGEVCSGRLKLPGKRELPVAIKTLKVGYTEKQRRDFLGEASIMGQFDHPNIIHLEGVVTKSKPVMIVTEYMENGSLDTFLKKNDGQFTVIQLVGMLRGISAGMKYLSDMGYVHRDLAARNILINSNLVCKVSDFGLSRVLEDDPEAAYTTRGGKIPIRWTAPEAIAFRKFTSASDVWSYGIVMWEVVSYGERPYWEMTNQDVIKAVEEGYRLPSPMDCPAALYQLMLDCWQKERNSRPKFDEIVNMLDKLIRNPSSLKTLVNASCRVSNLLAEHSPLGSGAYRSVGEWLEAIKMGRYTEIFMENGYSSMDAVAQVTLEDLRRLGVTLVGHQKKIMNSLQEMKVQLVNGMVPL

Consider `O=C(Nc1cccc(-c2c[nH]c3ncnc(N4CCOCC4)c23)c1)C1(C(=O)Nc2ccc(F)cc2F)CC1` [Compound 23], for which the dTm was 1.86 K in assay [1]; -0.64 K in assay [2]; -2.84 K in assay [3]; 3.82 K in assay [4]; -1.88 K in assay [5]; -0.00913 K in assay [6].

On to `Cc1ccc(-n2nc(C(C)(C)C)cc2NC(=O)Nc2cccc(-c3c[nH]c4ncnc(N5CCOCC5)c34)c2)cc1` [Compound 29], for which the dTm was 6.71 K in assay [1]; 0.25 K in assay [2]; -2.91 K in assay [3]; 6.55 K in assay [4]; -0.60 K in assay [5]; 1.80 K in assay [6].

In the case of `Cc1ccc(NC(=O)C2(C(=O)Nc3cccc(-c4c[nH]c5ncnc(N6CCOCC6)c45)c3)CC2)cc1` [Compound 14], the dTm is recorded as 3.63 K in assay [1]; -0.87 K in assay [2]; -0.69 K in assay [3]; 4.70 K in assay [4]; 0.0157 K in assay [5]; -0.55 K in assay [6].

The values are drawn from paper PMC12136037, “Type II kinase inhibitors that target Parkinson’s disease–associated LRRK2” (Science Advances, 2025).
